For eight compounds, IC50 results are on record in US11274091B2 (Dizal (Jiangsu) Pharmaceutical Co., Ltd., priority 2018, dated 2022).

pIC50: −log10 of the molar value. A value given as a limit tells only on which side of the number the result lay.

One experiment has as its target human TRPC6 ion channel (Homo sapiens (Human), UniProt Q9Y210). Briefly: Inhibition of TRPC6 FLIPR Assay (membrane potential dye, OAG challenge). Type of experiment: cell-based. As to conditions: TRPC6-HEK293 cells, OAG at EC80; most potent isolated isomer; mean of minimum 2 experiments. An excerpt:
(§1) TRPC3 and TRPC6 channel opening causes an influx of predominantly calcium and sodium cations that result in a change in the electrical potential across the cell membrane. This change in membrane potential can be monitored using membrane potential dyes in the following FLIPR™ (Fluorescent Imaging Plate Reader) assays.
TRPC6-HEK293 was purchased from PerkinElmer (PerkinElmer, Product No.: AX-012-C), HEK293 cells were transfected using the pcDNA3.1(+)expression vector containing the coding sequence of the human TRPC6 ion channel. The coding sequence used is identical to coding sequence of GenBank NM_004621 with the exception of 2 synonym variations (t1683c and c2529t). The cells were grown in DMEM+10% fetal bovine serum (FBS) 0.5 mg/ml. Geneticin (ion channel expression selection) as culture medium.
TRPC6 cells were plated at 10K cells/well into 384-well polystyrene plates and then grown for 24 hs at 37° C. plus 5% CO2. After this time the media was aspirated using a Tecan plate washer and then replaced with 40 μL of dye loading buffer (130 mM NaCl, 5 mM KCl, 0.15 mM CaCl2, 1 mM MgCl2, 20 mM HEPES ((4-(2-hydroxyethyl)-1-piperazineethanesulfonic acid)), 5 mM NaHCO3). For TRPC6, a final concentration of 0.5× is used. Cells with membrane potential dye were then incubated for 30 mins at room temperature prior to beginning the experiments.
(§2) To test the effects of compounds on TRPC6 activity, compounds were first diluted in 100% DMSO to 3× the final concentration to be used in the experiments. Typical dose-response experiments ranged from 10 μM (top concentration) to 0.5 nM (lowest concentration). Ten microliters of 0.5× compound in 0.5% DMSO were added to 40 μL of cells incubated with membrane potential dye. Compound addition was performed on a FLIPRTetra or a FLIPR 384 (MDS Analytical Technologies, Molecular Devices, Sunnyvale, Calif., 94089, USA). After a 400 second incubation with compound, 12.5 of OAG (1-oleoyl-2-acetyl-sn-glycerol (OAG), Sigma, Gillingham, Dorset, SP8 4XT Cat #O6754-10 MG) was added at 5× the EC80 (typical EC80 for TRPC6=3 μM final). The OAG challenge is designed to measure the inhibitory activity of compounds on receptor-operated TRPC6 activation.
(§3) All data was normalized to low controls (buffer alone) or high controls (OAG EC100). Data was analyzed using an XC50 curve fitting module and reported as pIC50 or IC50 values. The values are averaged to determine a mean value, for a minimum of 2 experiments.

In the next experiment the target is human TRPC3 ion channel (Homo sapiens (Human), UniProt Q13507). In words: Inhibition of TRPC3 FLIPR Assay (membrane potential dye, OAG challenge). The settings on record: TRPC3 transfected AD293 cells, OAG at EC80; most potent isolated isomer; mean of minimum 2 experiments. Type of experiment: cell-based.
From the text: as §1
AD293 cells were transfected using the PLVX-puro lentivirus vector containing the coding sequence of the human TRPC3 ion channel. Puromycin-resistant cells were selected by treating with […] puromycin for two weeks. Monoclonal cells were obtained by limiting dilution and compared for their response to OAG in a membrane potential assay. The cells were grown in DMEM+10% fetal bovine serum (FBS)+1 μg/mL puromycin as culture medium.
TRPC3 cells were plated at 9K/well into 384-well polystyrene plates. Cells were grown for 24 h at 37° C. plus 5% CO2 after which media was aspirated using a Tecan plate washer and replaced with 40 μL of dye loading buffer (130 mM NaCl, 5 mM KCl, 0.15 mM CaCl2, 1 mM MgCl2, 20 mM HEPES ((4-(2-hydroxyethyl)-1-piperazineethanesulfonic acid)), 5 mM NaHCO3). For TRPC3 a final concentration of 0.5× membrane potential dye (Molecular Devices Membrane Blue, FLIPR Membrane Potential Assay Kit (bulk), Product #R8034(BLUE), Molecular Devices, Sunnyvale, Calif., 94089, USA) was used. Cells with membrane potential dye were then incubated for 30 mins at room temperature prior to beginning the experiments.
as §2, with “TRPC3” for “TRPC6”, “5×” for “0.5×”, “Technologies).” for “Technologies, Molecular Devices, Sunnyvale, Calif., 94089, USA).”, “12.5 μL” for “12.5”, “OAG” for “OAG (1-oleoyl-2-acetyl-sn-glycerol (OAG), Sigma, Gillingham, Dorset, SP8 4XT Cat #O6754-10 MG)”, “TRPC3=2” for “TRPC6=3”
as §3

human TRPC3 ion channel, sequence (Q13507 whole entry): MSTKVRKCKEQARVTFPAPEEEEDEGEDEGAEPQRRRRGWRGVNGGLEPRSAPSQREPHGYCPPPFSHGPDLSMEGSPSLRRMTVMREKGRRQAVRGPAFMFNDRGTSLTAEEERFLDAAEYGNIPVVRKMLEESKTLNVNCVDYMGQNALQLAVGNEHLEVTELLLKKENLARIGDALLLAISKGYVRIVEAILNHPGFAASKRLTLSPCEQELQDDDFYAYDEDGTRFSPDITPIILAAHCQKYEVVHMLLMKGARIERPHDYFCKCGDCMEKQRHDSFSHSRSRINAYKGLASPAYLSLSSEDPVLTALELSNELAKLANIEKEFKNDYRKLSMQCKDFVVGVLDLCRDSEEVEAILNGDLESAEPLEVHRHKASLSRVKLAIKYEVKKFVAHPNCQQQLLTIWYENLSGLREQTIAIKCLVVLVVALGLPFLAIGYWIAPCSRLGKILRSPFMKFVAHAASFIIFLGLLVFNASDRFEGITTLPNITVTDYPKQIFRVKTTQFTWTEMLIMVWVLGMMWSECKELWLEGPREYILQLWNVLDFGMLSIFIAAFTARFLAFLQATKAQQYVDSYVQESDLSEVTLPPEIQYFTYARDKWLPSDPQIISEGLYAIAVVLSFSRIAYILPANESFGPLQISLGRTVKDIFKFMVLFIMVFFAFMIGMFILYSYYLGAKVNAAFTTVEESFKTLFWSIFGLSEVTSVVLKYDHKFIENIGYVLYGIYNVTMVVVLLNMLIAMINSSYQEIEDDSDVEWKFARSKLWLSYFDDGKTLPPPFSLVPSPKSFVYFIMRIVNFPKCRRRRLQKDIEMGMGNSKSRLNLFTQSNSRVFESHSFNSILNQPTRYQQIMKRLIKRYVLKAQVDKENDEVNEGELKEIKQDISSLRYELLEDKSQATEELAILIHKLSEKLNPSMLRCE
human TRPC6 ion channel, sequence (Q9Y210 whole entry): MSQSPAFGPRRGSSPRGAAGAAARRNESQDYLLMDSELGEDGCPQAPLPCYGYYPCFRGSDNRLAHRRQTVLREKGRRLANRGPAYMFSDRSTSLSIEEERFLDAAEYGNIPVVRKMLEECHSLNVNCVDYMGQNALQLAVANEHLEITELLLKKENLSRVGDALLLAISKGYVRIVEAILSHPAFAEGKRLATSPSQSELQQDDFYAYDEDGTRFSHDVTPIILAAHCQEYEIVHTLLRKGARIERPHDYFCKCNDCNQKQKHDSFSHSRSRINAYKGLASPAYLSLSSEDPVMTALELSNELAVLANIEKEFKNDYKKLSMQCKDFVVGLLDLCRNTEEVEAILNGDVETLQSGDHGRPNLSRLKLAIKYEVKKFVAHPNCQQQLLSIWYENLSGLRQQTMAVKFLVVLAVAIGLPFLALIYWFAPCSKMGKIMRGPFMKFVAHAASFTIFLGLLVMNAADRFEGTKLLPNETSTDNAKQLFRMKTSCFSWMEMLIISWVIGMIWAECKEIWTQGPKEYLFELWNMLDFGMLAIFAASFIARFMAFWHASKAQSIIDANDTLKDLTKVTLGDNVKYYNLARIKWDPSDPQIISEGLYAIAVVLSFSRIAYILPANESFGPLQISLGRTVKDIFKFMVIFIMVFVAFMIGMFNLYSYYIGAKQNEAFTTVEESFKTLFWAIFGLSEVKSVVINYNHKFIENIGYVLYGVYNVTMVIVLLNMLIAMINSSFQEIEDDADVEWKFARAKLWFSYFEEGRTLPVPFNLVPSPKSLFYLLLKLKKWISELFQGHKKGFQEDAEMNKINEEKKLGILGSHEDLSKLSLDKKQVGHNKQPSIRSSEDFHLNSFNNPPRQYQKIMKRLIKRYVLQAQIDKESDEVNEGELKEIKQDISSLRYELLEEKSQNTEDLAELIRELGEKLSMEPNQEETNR

As to `N#Cc1ccc(OC2CC(c3ccc(F)cc3)CC2N2CC(N)CC(F)C2)nn1` (stereo not shown) [Example 24, 6-[2-(3-amino-5-fluoro-1-piperidyl)-4-(4-fluorophenyl)cyclopentoxy]pyridazine-3-carbonitrile], the negative logarithm of the IC50 (pIC50) against human TRPC6 ion channel is less than 7.93; at human TRPC3 ion channel it was 8.14.
On to `N[C@@H]1CCCN([C@H]2C[C@@H](c3ccc(F)cc3)C[C@@H]2Oc2cc(F)cnn2)C1` [Example 25, (R)-1-((1S,2S,4R)-4-(4-fluorophenyl)-2-(5-fluoropyridazin-3-yloxy)cyclopentyl)piperidin-3-amine], for which the negative-log IC50 (pIC50) on human TRPC6 ion channel was 8.00; against human TRPC3 ion channel, 6.68.
The matching figures for `N#Cc1ccc(OC2CC(c3ccc(F)cc3)CC2N2CCCC(N)C2)cn1` (stereo not shown) [Example 27]: 7.66 and 7.29.
The matching figures for `NC1CCCN(C2CC(c3ccc(F)cc3)CC2Oc2cccnn2)C1` (stereo not shown) [Example 28, 1-[4-(4-fluorophenyl)-2-pyridazin-3-yloxy-cyclopentyl]piperidin-3-amine]: 7.75 and 7.49.
As to `NC1CC(F)CN(C2CC(c3ccc(F)cc3)CC2Oc2ccncn2)C1` (stereo not shown) [Example 29, 5-fluoro-1-[4-(4-fluorophenyl)-2-pyrimidin-4-yloxy-cyclopentyl]piperidin-3-amine], the figures for the negative logarithm of the IC50 (pIC50) against human TRPC6 ion channel and against human TRPC3 ion channel were 8.46 and 8.43, respectively.
Regarding `N#Cc1cnc(OC2CC(c3ccc(F)cc3)CC2N2CCCC(N)C2)nc1` (stereo not shown) [Example 30, 2-[2-(3-amino-1-piperidyl)-4-(4-fluorophenyl)cyclopentoxy]pyrimidine-5-carbonitrile], the results for the pIC50 against human TRPC6 ion channel and on human TRPC3 ion channel were 7.94 and 7.62, respectively.
The matching figures for `N#Cc1cnc(OC2CC(c3ccc(F)cc3)CC2N2CCCC(N)C2)cn1` (stereo not shown) [Example 31, 5-[2-(3-amino-1-piperidyl)-4-(4-fluorophenyl)cyclopentoxy]pyrazine-2-carbonitrile]: 7.86 and 7.59.
Turning to `N#Cc1ncc(OC2CC(c3ccc(F)cc3)CC2N2CCCC(N)C2)cn1` (stereo not shown) [Example 32, 5-[2-(3-amino-1-piperidyl)-4-(4-fluorophenyl)cyclopentoxy]pyrimidine-2-carbonitrile], the pIC50 at human TRPC6 ion channel is 7.97; against human TRPC3 ion channel it was 7.41.

A word on the pIC50: it is −log10 of the IC50, conventionally taken in molar units. Lower therefore signals a large IC50.
